Source: patent US4341756A, “Novel amino-dioxepane intermediates for the synthesis of new non-ionic contrast media” (The Regents of the University of California, priority 1980, dated 1982)

Tests used:
[1] = Viscosity; format: physicochemical; conditions: 37° C., 300 mgI/ml
From the text: (§1) This compound was synthesized as described for the hydroxyacetyl analog (VIIIb). The product was obtained in 69% yield as a colorless glassy solid.

[2] = Water solubility; format: physicochemical; conditions: at 20° C.
From the text: as §1

[3] = tested on: rats; test: Aversive conditioning in rats (preference/avoidance after injection into the lateral ventricle); format: in vivo; conditions: for Aversion expressed in relation to Metrizamide: Metrizamide = 1; for % Aversion: injection into the lateral ventricle, average from a group of 10 rats
Procedure: (§2) Employing conventional procedures, the following tests were carried out and compared with known commercially available contrast media. The following tables indicate the results.
Aversive conditioning in rats: (Test-
ing for preference/avoidance after an injection
into the lateral ventricle via a chronically im-
planted cannula) (Average from a group of 10 rats)

[4] = tested on: mice; test: Systemic Toxicity: LD50 of compound injected intravenously in mice; format: in vivo; conditions: intravenous, groups of 10 mice
Procedure: as §2
LD50 (gI/kg bw) of compound injected
intravenously in groups of 10 mice.

[5] = tested on: Blepharisma americ.; test: Cell Toxicity: LD50 at 4' of a standardized culture of a protozoan; format: cell-based; conditions: for LD50: at 4', standardized culture of Blepharisma americ.
Procedure: as §2
(LD50 at 4' of a standardized culture of a
protozoan Blepharisma americ.)

[6] = tested on: rats; test: Neurotoxicity: neural deficits after intracisternal injections in rats; format: in vivo; conditions: for Deficit Scores: average of 10 rats, 0 = normal; for Neural deficits: rats
Procedure: as §2
tions in rats with chronically implanted
cannulas into the right ventricle.
Deficit scores were calculated on the basis of a preset rating (average o

Compound | viscosity [1] [cps] | solubility in water [2] [mgI/ml] | Aversion expressed in relation to Metrizamide [3] [times less aversive] | % Aversion [3] [%] | LD50 [4] [gI/kg bw] | LD50 [5] [mg I/ml] | Conclusion on toxicity ([5]; compared with Iopamidol and Metrizamide) | Deficit Scores ([6]; 40 mg I) | Neural deficits ([6]; 40 mg I) | Deficit Scores ([6]; 60 mg I) | Deficit Scores ([6]; 100 mg I) | Neural deficits ([6]; 60 mg I) | Neural deficits ([6]; 100 mg I)
CC(O)C(=O)Nc1c(I)c(C(=O)NC(CO)C(O)CO)c(I)c(C(=O)NC(CO)C(O)CO)c1I (racemic) [VIIIc, 2,4,6-triiodo-5-(2-DL or L-hydroxypropionylamino)-isophthalic acid-bis-N,N'-(1,3,4-trihydroxy-threo-but-2-yl)-amide] | 6.6 | > 400 | 3.4 | 9.4 | 21.3 | 148 | lower toxicity than Iopamidol and Metrizamide | 0 | Normal | 3.0 ± 1.73 | 26 ± 3.2 | – | –
CN(C(=O)CC(=O)N(C)c1c(I)c(C(=O)NC(CO)C(O)CO)c(I)c(C(=O)NC(CO)C(O)CO)c1I)c1c(I)c(C(=O)NC(CO)C(O)CO)c(I)c(C(=O)NC(CO)C(O)CO)c1I (stereo not drawn) [XVIII, N,N'-bis-Methyl-N,N'-bis [2,4,5-triiodo-3,5-bis-{N,N'-(1,3,4-trihydroxy-threo-but-2-yl)}-carbamoylphenyl]malondiamide] | – | – | – | – | – | – | – | 0 | Normal | 0 | 0 | Normal | Normal
C[C@H](O)C(=O)Nc1c(I)c(C(=O)NC(CO)CO)c(I)c(C(=O)NC(CO)CO)c1I [Iopamidol, N,N'-di(1',3'-dihydroxypropyl-2') 5-L-lactoylamido triiodoisophthaldiamide, reference compound] | – | – | 1.2 | 24.6 | 18.7 | 136 | – | 1.75 ± 0.96 | – | 22.0 | – | – | Death
CC(=O)Nc1c(I)c(C(=O)N[C@H]2C(O)O[C@H](CO)[C@@H](O)[C@@H]2O)c(I)c(N(C)C(C)=O)c1I (stereo partly shown) [Metrizamide, 3-acetamido-5-(N-methylacetamido) triiodobenzoyl derivative of glucosamine, reference compound] | – | – | 1 | 29.8 | 12.1 | 133 | – | 25.3 ± 10.1 | – | 84.2 ± 12.3 | – | – | Death
